EPA's CvTdb concentration-time database

Columns and labels:
Rat [1] = test: concentration in adipose after dosing; details: 72 h; dosed: Tamoxifen citrate; 300 ug/mL; oral; Female; F344
Rat [2] = test: concentration in plasma after dosing; details: dosed: Tamoxifen citrate, 300 ug/mL, oral, Female, F344
Rat [3] = test: concentration in liver after dosing; details: 144 h; dosed: Tamoxifen; 300 ug/mL; oral; Female; F344
Rat [4] = test: concentration in adipose after dosing; details: 72 h; dosed: Tamoxifen citrate; 100 ug/mL; oral; Female; F344
Rat [5] = test: concentration in plasma after dosing; details: dosed: Tamoxifen, 300 ug/mL, oral, Female, F344
Rat [6] = test: concentration in adipose after dosing; details: 72 h; dosed: Tamoxifen citrate; 100 ug/mL; oral; Female; F344; remark: listed apart in the source
Rat [7] = test: concentration in adipose after dosing; details: 144 h; dosed: Tamoxifen; 300 ug/mL; oral; Female; F344
Rat [8] = test: concentration in plasma after dosing; details: dosed: Tamoxifen, 300 ug/mL, oral, Female, F344; remark: listed apart in the source
Rat [9] = test: concentration in adipose after dosing; details: 72 h; dosed: Tamoxifen; 300 ug/mL; oral; Female; F344
Rat [10] = test: concentration in adipose after dosing; details: 144 h; dosed: Tamoxifen; 300 ug/mL; oral; Female; F344; remark: listed apart in the source
Rat [11] = test: concentration in adipose after dosing; details: 144 h; dosed: Tamoxifen citrate; 100 ug/mL; oral; Female; F344
Rat [12] = test: concentration in plasma after dosing; details: 300 ug/mL, oral, Female, F344
Rat [13] = test: concentration in liver after dosing; details: 72 h; dosed: Tamoxifen citrate; 100 ug/mL; oral; Female; F344
Rat [14] = test: concentration in liver after dosing; details: 144 h; dosed: Tamoxifen; 300 ug/mL; oral; Female; F344; remark: listed apart in the source
Rat [15] = test: concentration in liver after dosing; details: 144 h; dosed: Tamoxifen citrate; 300 ug/mL; oral; Female; F344
Rat [16] = test: concentration in adipose after dosing; details: 72 h; dosed: Tamoxifen; 300 ug/mL; oral; Female; F344; remark: listed apart in the source
Rat [17] = test: concentration in liver after dosing; details: 144 h; dosed: Tamoxifen citrate; 300 ug/mL; oral; Female; F344; remark: listed apart in the source
Rat [18] = test: concentration in adipose after dosing; details: 144 h; dosed: Tamoxifen; 300 ug/mL; oral; Female; F344; remark: listed apart in the source
Rat [19] = test: concentration in liver after dosing; details: 72 h; dosed: Tamoxifen citrate; 300 ug/mL; oral; Female; F344
Rat [20] = test: concentration in adipose after dosing; details: 144 h; dosed: Tamoxifen citrate; 300 ug/mL; oral; Female; F344
Rat [21] = test: concentration in liver after dosing; details: 144 h; dosed: Tamoxifen citrate; 300 ug/mL; oral; Female; F344; remark: listed apart in the source
Rat [22] = test: concentration in liver after dosing; details: 144 h; dosed: Tamoxifen; 300 ug/mL; oral; Female; F344; remark: listed apart in the source
Rat [23] = test: concentration in adipose after dosing; details: 144 h; dosed: Tamoxifen citrate; 300 ug/mL; oral; Female; F344; remark: listed apart in the source
Rat [24] = test: concentration in liver after dosing; details: 144 h; dosed: Tamoxifen citrate; 100 ug/mL; oral; Female; F344
Rat [25] = test: concentration in plasma after dosing; details: dosed: Tamoxifen citrate, 300 ug/mL, oral, Female, F344; remark: listed apart in the source
Rat [26] = test: concentration in plasma after dosing; details: dosed: Tamoxifen, 300 ug/mL, oral, Female, F344; remark: listed apart in the source
Rat [27] = test: concentration in adipose after dosing; details: 144 h; dosed: Tamoxifen citrate; 300 ug/mL; oral; Female; F344; remark: listed apart in the source
Rat [28] = test: concentration in liver after dosing; details: 144 h; dosed: Tamoxifen citrate; 300 ug/mL; oral; Female; F344; remark: listed apart in the source
Rat [29] = test: concentration in liver after dosing; details: 72 h; dosed: Tamoxifen citrate; 100 ug/mL; oral; Female; F344; remark: listed apart in the source
Rat [30] = test: concentration in liver after dosing; details: 144 h; dosed: Tamoxifen; 300 ug/mL; oral; Female; F344; remark: listed apart in the source
Rat [31] = test: concentration in adipose after dosing; details: oral, Female, F344
Rat [32] = test: concentration in liver after dosing; details: 144 h; dosed: Tamoxifen citrate; 100 ug/mL; oral; Female; F344; remark: listed apart in the source
Rat [33] = test: concentration in liver after dosing; details: 72 h; dosed: Tamoxifen; 300 ug/mL; oral; Female; F344
Rat [34] = test: concentration in adipose after dosing; details: 144 h; dosed: Tamoxifen citrate; 300 ug/mL; oral; Female; F344; remark: listed apart in the source
Rat [35] = test: concentration in plasma after dosing; details: dosed: Tamoxifen citrate, 300 ug/mL, oral, Female, F344; remark: listed apart in the source
Rat [36] = test: concentration in liver after dosing; details: 72 h; dosed: Tamoxifen citrate; 300 ug/mL; oral; Female; F344; remark: listed apart in the source
Rat [37] = test: concentration in liver after dosing; details: oral, Female, F344
Rat [38] = test: concentration in liver after dosing; details: 144 h; dosed: Tamoxifen; 300 ug/mL; oral; Female; F344; remark: listed apart in the source
Rat [39] = test: concentration in liver after dosing; details: 72 h; dosed: Tamoxifen; 300 ug/mL; oral; Female; F344; remark: listed apart in the source
Rat [40] = test: concentration in adipose after dosing; details: 144 h; dosed: Tamoxifen; 300 ug/mL; oral; Female; F344; remark: listed apart in the source
Rat [41] = test: concentration in adipose after dosing; details: 144 h; dosed: Tamoxifen; 300 ug/mL; oral; Female; F344; remark: listed apart in the source
Rat [42] = test: concentration in liver after dosing; details: 144 h; dosed: Tamoxifen citrate; 300 ug/mL; oral; Female; F344; remark: listed apart in the source
Rat [43] = test: concentration in adipose after dosing; details: 72 h; dosed: Tamoxifen citrate; 300 ug/mL; oral; Female; F344; remark: listed apart in the source
Rat [44] = test: concentration in adipose after dosing; details: 144 h; dosed: Tamoxifen citrate; 300 ug/mL; oral; Female; F344; remark: listed apart in the source

CC/C(=C(\c1ccccc1)c1ccc(OCCN(C)C)cc1)c1ccccc1 [Tamoxifen]
Details | concentration in adipose [ng/mL] | concentration in liver [ng/g]
Rat [1] | 27.4 | –
Rat [3] | – | 239
Rat [4] | 14.8 | –
Rat [6] | 5.58 | –
Rat [7] | 55.7 | –
Rat [9] | 31.2 | –
Rat [10] | 44.5 | –
Rat [11] | 10.4 | –
Rat [13] | – | 13
Rat [14] | – | 58.4
Rat [15] | – | 37.2
Rat [16] | 27.4 | –
Rat [17] | – | 58.4
Rat [18] | 151 | –
Rat [19] | – | 30.5
Rat [20] | 30.4 | –
Rat [21] | – | 25.3
Rat [22] | – | 25.3
Rat [23] | 55.7 | –
Rat [24] | – | 13.9
Rat [27] | 151 | –
Rat [28] | – | 239
Rat [29] | – | 5.85
Rat [30] | – | 22.8
Rat [32] | – | 16.3
Rat [33] | – | 30.5
Rat [34] | 40.1 | –
Rat [36] | – | 21.1
Rat [38] | – | 37.2
Rat [39] | – | 21.1
Rat [40] | 40.1 | –
Rat [41] | 30.4 | –
Rat [42] | – | 22.8
Rat [43] | 31.2 | –
Rat [44] | 44.5 | –

concentration in plasma [ng/mL]
Details | Rat [2] | Rat [5] | Rat [8] | Rat [25] | Rat [26] | Rat [35]
0.25 h | 11.9 | 21.9 | 11.9 | 15.4 | 15.4 | 21.9
0.5 h | 8.96 | 10.2 | 8.96 | 12.2 | 12.2 | 10.2
1 h | 7.35 | – | 7.35 | 9.33 | 9.33 | –
2 h | 5.81 | 6.23 | 5.81 | 8.41 | 8.41 | 6.23
4 h | – | 4.51 | – | 4.44 | 4.44 | 4.51
12 h | – | 2.66 | – | – | – | 2.66

concentration in plasma [ng/mL], Rat [12]
Details | 0 h | 0.25 h | 0.5 h | 1 h | 2 h | 4 h | 8 h | 16 h
dosed: Tamoxifen | 2.13 | 3.18 | 2.95 | 2.9 | 4.38 | 4.12 | 4.6 | 2.42
dosed: Tamoxifen citrate | 2.13 | 3.18 | 2.95 | 2.9 | 4.38 | 4.12 | 4.6 | 2.42

Details | concentration in adipose, Rat [31] [ng/mL] | concentration in liver, Rat [37] [ng/g]
72 h, dosed: Tamoxifen citrate, 100 ug/mL | 7.52 | 7.61
72 h, dosed: Tamoxifen citrate, 300 ug/mL | 33.6 | 39.5
72 h, dosed: Tamoxifen, 300 ug/mL | 33.6 | 39.5
144 h, dosed: Tamoxifen citrate, 100 ug/mL | 9.5 | 13.4
144 h, dosed: Tamoxifen citrate, 300 ug/mL | 31.5 | 48.3
144 h, dosed: Tamoxifen, 300 ug/mL | 31.5 | 48.3
